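Five concentrations, 48 hours, 96-well plates. GI50 marks 50% less growth.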 Active and inactive are the calls of the source. Rule as the data show it: active = GI50 up to about 1.1 µM and inactive = higher.
Assays:
Test in all cases: NCI tumour cell line growth inhibition, 48 h
[1] = system: ACHN
[2] = system: DLD-1
[3] = system: DMS-114
[4] = system: KM-20L2
[5] = system: M14
[6] = system: M19-MEL
[7] = system: SF-539
[8] = system: SK-MEL-2
[9] = system: SW-620
[10] = system: XF498
[11] = system: HOP-92
[12] = system: MCF7
[13] = system: RXF 393
[14] = system: SR
[15] = system: TK-10
[16] = system: DU-145
[17] = system: MDA-MB-435
[18] = system: MDA-N
[19] = system: PC-3
[20] = system: T47D

| Structure (SMILES) | GI50 [1] | GI50 [2] | GI50 [3] | GI50 [4] | GI50 [5] | GI50 [6] | GI50 [7] | GI50 [8] | GI50 [9] | GI50 [10] | GI50 [11] | GI50 [12] | GI50 [13] | GI50 [14] | GI50 [15] | GI50 [16] | GI50 [17] | GI50 [18] | GI50 [19] | GI50 [20] |
| --- | --- | --- | --- | --- | --- | --- | --- | --- | --- | --- | --- | --- | --- | --- | --- | --- | --- | --- | --- | --- |
| CCNC(=O)N(CC)CN(CC)C(=O)NCC | > 100 µM (inactive) | > 100 µM (inactive) | > 100 µM (inactive) | > 100 µM (inactive) | > 100 µM (inactive) | > 100 µM (inactive) | > 100 µM (inactive) | > 100 µM (inactive) | > 100 µM (inactive) | > 100 µM (inactive) |  |  |  |  |  |  |  |  |  |  |
| O=C1C2=C(C3=NCCc4c[nH]c1c43)C1(C=C(Br)C(O)C(Br)=C1)CCN2 (stereo not given) |  | 1.67 µM (inactive) | 0.202 µM (active) | 0.317 µM (active) |  | 0.38 µM (active) | 2.05 µM (inactive) | 3.2 µM (inactive) | 0.541 µM (active) | 7.67 µM (inactive) | 2.92 µM (inactive) | 0.433 µM (active) | 2.56 µM (inactive) |  |  |  |  |  |  |  |
| CC(C)=CCc1c(C)cc2cc3c(c(O)c2c1O)C(=O)C=C(O)C3(CC=C(C)C)C/C=C(\C)CO (stereo not given) |  | 32.7 µM (inactive) | 38.9 µM (inactive) | 39.9 µM (inactive) |  | 37.4 µM (inactive) | 39.1 µM (inactive) | 13 µM (inactive) | 39.8 µM (inactive) | 16.4 µM (inactive) | 33.2 µM (inactive) | 42.7 µM (inactive) | 29 µM (inactive) |  |  |  |  |  |  |  |
| CC1=C(C(=O)NNS(=O)(=O)c2ccc(C)cc2)CC(C(=O)NNS(=O)(=O)c2ccc(C)cc2)=C(C)N1 | 84.9 µM (inactive) | > 100 µM (inactive) | > 100 µM (inactive) | > 100 µM (inactive) | > 100 µM (inactive) | 98.9 µM (inactive) | > 100 µM (inactive) | > 100 µM (inactive) | > 100 µM (inactive) | > 100 µM (inactive) |  |  | 92.7 µM (inactive) | 61.1 µM (inactive) | 56.4 µM (inactive) |  |  |  |  |  |
| CC(=O)OCC1OC(OC(C)=O)C(NC#N)C(OC(C)=O)C1OC(C)=O (stereo not given) | 49.7 µM (inactive) | > 100 µM (inactive) | > 100 µM (inactive) |  | 97.7 µM (inactive) | > 100 µM (inactive) | > 100 µM (inactive) | 50.7 µM (inactive) | > 100 µM (inactive) |  | > 100 µM (inactive) |  | > 100 µM (inactive) | 73.5 µM (inactive) | > 100 µM (inactive) |  |  |  |  |  |
| Cc1ccc(NC(=O)C(=O)C2C(=O)N(c3ccccc3)N=C2N)cc1C (stereo not given) | > 100 µM (inactive) | > 100 µM (inactive) | > 100 µM (inactive) | > 100 µM (inactive) | > 100 µM (inactive) | > 100 µM (inactive) | > 100 µM (inactive) |  | > 100 µM (inactive) | > 100 µM (inactive) | > 100 µM (inactive) |  |  | > 100 µM (inactive) | > 100 µM (inactive) |  |  |  |  |  |
| CC(C)C(=O)CC(c1ccc(Br)cc1)N1N=C(C(C)C)CC1c1ccc(Br)cc1 (stereo not given) | > 100 µM (inactive) |  | 27.9 µM (inactive) | 45.3 µM (inactive) | 66.1 µM (inactive) | 25.9 µM (inactive) | > 100 µM (inactive) | 53.6 µM (inactive) | 93.3 µM (inactive) | 21 µM (inactive) | 31.4 µM (inactive) |  | 16.9 µM (inactive) | 69 µM (inactive) | > 100 µM (inactive) |  |  |  |  |  |
| FC(F)(F)C1=NC(=NNc2nnc(-c3ccccc3)c(-c3ccccc3)n2)N=C(C(F)(F)F)C1 |  | 12.6 µM (inactive) | 6.14 µM (inactive) | 16.8 µM (inactive) |  | 21.8 µM (inactive) | 32.9 µM (inactive) | 24.5 µM (inactive) | 27.3 µM (inactive) | 20 µM (inactive) | 15.8 µM (inactive) | 13.5 µM (inactive) | 7.57 µM (inactive) |  |  |  |  |  |  |  |
| O=C1C=C(N2CC2)C(=O)C=C1N1CC1 | 0.0423 µM (active) | 0.117 µM (active) |  | 0.354 µM (active) | 0.091 µM (active) |  | 0.0931 µM (active) | 0.12 µM (active) | 0.0891 µM (active) | 0.105 µM (active) | 0.44 µM (active) |  | 0.0634 µM (active) | 0.0258 µM (active) | 0.136 µM (active) | 0.339 µM (active) | 1.23 µM (inactive) | 0.515 µM (active) | 1.11 µM (active) | 1.05 µM (active) |
